For experiment [1], the system named is P5 DIV3 rat spiral ganglia neurons. The experiment can be described thus: Rotenone-induced neurite degeneration (neurite beading/blebbing, NF-200 stain) in spiral ganglia neuron culture. The class given is cell-based. As to the method:
Dissociated spiral ganglia neurons were harvested from P5 rats. Briefly, pups were rapidly decapitated, and cochlea were dissected. The modiolus was then dissected and digested (0.1% trypsin, 0.1% collagenase, HBSS−/−) for 45 min at 37° C. Sequential trituration was performed with fire-polished pipets to release cells from the tissue, and cells were transferred to laminin/polylysine-coated 24-well plates. Neurons were incubated overnight in culture media (DMEM high glucose, N2 supplement, 10 μg/ml insulin, 25 μg/ml BDNF, 25 μg/ml NT3). To elicit neurite degeneration, cultures were incubated with rotenone (10 μM) for 2 hr in the presence/absence of 10 mM NAD+.
Spiral ganglia neuron cultures were fixed with 4% paraformaldehyde and permeabilized with 0.5% Triton X-100™/PBS for 10 min. After washing, cells were blocked with 4% donkey serum and incubated with mouse anti-NF200 (1:1000) overnight at 4° C. Neurite beading was then measured using a previously described, unbiased computerized protocol (Sasaki, Y. et al., J. Neuroscience, 29, 5525-5535 (2009)).
Axonal degeneration in a variety of neurons can be blocked by treatment with millimolar concentrations of NAD+ (Avery, M. A., et al., Current Biology, CB 22, 596-600 (2012)). […] This effect was blocked by simultaneous treatment of neurons with 10 mM NAD+. […]

Experiment [2] deals with noise-exposed C57BL6 mice. The experiment can be described thus: Auditory brainstem response (ABR) testing of noise-induced hearing loss after 90 dB octave band noise exposure for 2 hr. The class given is in vivo. Also noted: Avg. hearing loss: unit not given here. The settings on record: for transient threshold shift: 24 hours after noise exposure. As to the method: Auditory brainstem response testing was performed as previously described (Willott, J. F., Current Protocols in Neuroscience, 8.21B, B1-B12 (2005). Animals were tested following sedation with ketamine and xylazine (40 mg/kg and 10 mg/kg, respectively). Tone burst stimuli at 8, 16, and 32 kHz for 0.5 msec were used to elicit auditory evoked responses using an auditory brainstem recording system (Intelligent Hearing Systems, Miami, Fla.). An evoked response was determined by identifying waveforms at proper time intervals that increased in magnitude with increasing volume as described previously by Willott.
Animals were exposed to a 90 dB octave band for 2 hr in a cage placed in a soundproof chamber (MAC-2, Industrial Acoustics Company, Bronx N.Y.). The mice were able to freely move throughout the cage. The octave band was generated using ToneGen software (NCH software, Greenwood Village, Colo.) routed through an Audiosource Amp100 amplifier driving two down-facing Fostex FT-96H speakers. The sound pressure level was confirmed at 0, 30, 60, and 90 min, and again just prior to completion of sound exposure using an Extech microphone 407736.
To test whether augmented NAD biosynthesis protects from noise-induced hearing loss, auditory brainstem responses (ABR) elicited by tone burst stimuli after acoustic trauma was measured. An ABR occurs when a mouse hears the tone burst stimulus. In these experiments, acoustic trauma was elicited in mice by a 90 dB octave band noise exposure for 120 min. To quantify the degree of hearing loss, “threshold shifts” were measured. These shifts refer to the increased level of sound intensity that is required to elicit an ABR. The threshold for detecting sound stimuli is determined by exposing mice to 0.5 msec tone bursts at a specific frequency and volume. […] Transient threshold shifts (TTS) refer to a temporary hearing loss 24 hours after noise exposure, and permanent threshold shifts (PTS) refer to hearing loss that remains 2 weeks after exposure.
(§1) Nicotinamide riboside (NR) is a well-tolerated precursor of NAD+. In these experiments, NR was administered by intraperitoneal injection twice daily at 1000 mg/kg, a dose which increases tissue NAD levels by 50%, either for 5 days prior to noise exposure and 14 days after noise exposure (NR Before+ After), 5 days prior to noise exposure (NR Before), or 14 days after noise exposure (NR After). […] The hearing loss at 8000 Hz, […], and 32,000 Hz is set forth in the Table and is depicted graphically in FIGS. 4A-4C, respectively.

Experiment [3] deals with spiral ganglia neurites / inner hair cells of noise-exposed mice. The experiment can be described thus: Retraction of spiral ganglia neurites from inner hair cells after noise exposure (cochlear immunohistology). The class given is in vivo. The settings on record: basal turn of the cochlea, NR before and after acoustic trauma. How it is done: Mouse cochlea were prepared as described in Whitlon, D. S. et al., Brain Research Protocols, 6, 159-166 (2001). Mouse cochlea were quickly dissected from the temporal bone following rapid decapitation. Once separated, the apex of the cochlea was gently fenestrated, and the cochlea were immediately fixed in 4% paraformaldehyde overnight at 4° C. The cochlea were then washed with three changes of PBS and incubated in a decalcification solution (10% EDTA/PBS pH 7.4) under constant rotation at 4° C. for 1 week. The decalcification solution was changed daily. Cochlea were washed in 3 changes of PBS and then treated with progressively increasing sucrose concentrations from 10-30%. The cochlea were incubated overnight in 30% sucrose at 4° C. The cochlea were incubated an additional 24 hr in OCT compound (Tissue-Tek). […]
Noise-induced hearing loss is associated with retraction of spiral ganglia neurites from the inner hair cells. As the most prominent hearing losses are seen in the portion of the auditory spectrum that contains the highest audible frequencies, the basal turn of the cochlea where this portion of the auditory spectrum is detected was focused on. […] Immunofluorescence labeling of the cochlea can readily show whether spiral ganglia neurites are forming their proper contacts with the base of inner hair cells. […]

In another experiment the test system is tissue NAD levels. The experiment can be described thus: Tissue NAD levels after intraperitoneal NR. The class given is in vivo. The settings on record: intraperitoneal injection twice daily at 1000 mg/kg. How it is done: as §1

`NC(=O)c1ccc[n+]([C@@H]2O[C@H](COP(=O)([O-])OP(=O)(O)OC[C@H]3O[C@@H](n4cnc5c(N)ncnc54)[C@H](O)[C@@H]3O)[C@@H](O)[C@H]2O)c1` [NAD+]: the “effect on rotenone-induced neurite degeneration” value in experiment [1] (simultaneous treatment with 10 mM NAD+ and 10 μM rotenone, 2 hr) is “blocked”.
For `NC(=O)c1ccc[n+]([C@@H]2O[C@H](CO)[C@@H](O)[C@H]2O)c1` [NR, Nicotinamide riboside], the transient threshold shift in experiment [2] (8000 Hz, NR i.p. twice daily 1000 mg/kg) was determined as 6 dB; in experiment [2] (16,000 Hz, NR i.p. twice daily 1000 mg/kg), 8 dB; in experiment [2] (32,000 Hz, NR i.p. twice daily 1000 mg/kg) it was 16 dB. Moreover, the Avg. hearing loss in experiment [2] (NR after (i.p. twice daily 1000 mg/kg, 14 days after noise), Baseline, 8 kHz) was determined as 14; in experiment [2] (NR after, 1 wk post noise, 8 kHz), 17; in experiment [2] (NR after, 1 wk post noise, 32 kHz) it was 28; in experiment [2] (NR after, 2 wks post noise, 8 kHz), 18; in experiment [2] (NR after, 2 wks post noise, 16 kHz), 15; in experiment [2] (NR after, 2 wks post noise, 32 kHz) it was 28. Moreover, the Avg. hearing loss in experiment [2] (NR after, 24 h post noise, 8 kHz) came to 23; in experiment [2] (NR after, 24 h post noise, 16 kHz), 23; in experiment [2] (NR after, 24 h post noise, 32 kHz), 37; in experiment [2] (NR after, Baseline, 16 kHz), 19; in experiment [2] (NR after, Baseline, 32 kHz) it was 31; in experiment [2] (NR after, Pre-noise, 8 kHz), 14. Moreover, the Avg. hearing loss in experiment [2] (NR after, Pre-noise, 16 kHz) is 21; in experiment [2] (NR after, Pre-noise, 32 kHz), 16; in experiment [2] (NR before (i.p. twice daily 1000 mg/kg, 5 days prior to noise), Baseline, 8 kHz) it was 14; in experiment [2] (NR before and after (i.p. twice daily 1000 mg/kg, 5 days prior to and 14 days after noise), Baseline, 8 kHz) it was 16; in experiment [2] (NR before and after, 1 wk post noise, 8 kHz) it was 15; in experiment [2] (NR before and after, 1 wk post noise, 16 kHz), 25. The Avg. hearing loss in experiment [2] (NR before and after, 1 wk post noise, 32 kHz) stood at 40; in experiment [2] (NR before and after, 2 wks post noise, 8 kHz), 20; in experiment [2] (NR before and after, 2 wks post noise, 16 kHz) it was 20; in experiment [2] (NR before and after, 2 wks post noise, 32 kHz) it was 20; in experiment [2] (NR before and after, 24 h post noise, 8 kHz) it was 22; in experiment [2] (NR before and after, 24 h post noise, 16 kHz), 26. The Avg. hearing loss stood at 44 in experiment [2] (NR before and after, 24 h post noise, 32 kHz); 13 in experiment [2] (NR before and after, Baseline, 16 kHz); 19 in experiment [2] (NR before and after, Baseline, 32 kHz); 16 in experiment [2] (NR before and after, Pre-noise, 8 kHz); 18 in experiment [2] (NR before and after, Pre-noise, 16 kHz); 28 in experiment [2] (NR before and after, Pre-noise, 32 kHz). In addition, the Avg. hearing loss worked out at 15 in experiment [2] (NR before, 1 wk post noise, 8 kHz); 23 in experiment [2] (NR before, 1 wk post noise, 16 kHz); 23 in experiment [2] (NR before, 1 wk post noise, 32 kHz); 18 in experiment [2] (NR before, 2 wks post noise, 8 kHz); 18 in experiment [2] (NR before, 2 wks post noise, 16 kHz); 23 in experiment [2] (NR before, 2 wks post noise, 32 kHz). Besides, the Avg. hearing loss is recorded as 18 in experiment [2] (NR before, 24 h post noise, 8 kHz); 25 in experiment [2] (NR before, 24 h post noise, 16 kHz); 38 in experiment [2] (NR before, 24 h post noise, 32 kHz); 16 in experiment [2] (NR before, Baseline, 16 kHz); 21 in experiment [2] (NR before, Baseline, 32 kHz); 13 in experiment [2] (NR before, Pre-noise, 8 kHz). In addition, the Avg. hearing loss worked out at 18 in experiment [2] (NR before, Pre-noise, 16 kHz) and 17 in experiment [2] (NR before, Pre-noise, 32 kHz). For the same molecule, the “protection from permanent hearing loss” value in experiment [2] (all 3 frequencies (8000, 16,000, 32,000 Hz), NR i.p. twice daily 1000 mg/kg) is given as “similarly protected”. Also, the “neurite retraction (distance of spiral ganglia neurites from inner hair cells)” value is 4.3±4.5 μm in experiment [3] (24 hr after noise exposure) and 2.5±3.5 μm in experiment [3] (14 d after noise exposure). Moreover, the “increase of tissue NAD levels” value in the experiment with tissue NAD levels was 50%.
Regarding `C=C(C)[C@H]1Cc2c(ccc3c2O[C@@H]2COc4cc(OC)c(OC)cc4[C@@H]2C3=O)O1` [rotenone], the “neurite degeneration, as measured by the presence of neurite blebbing” value in experiment [1] (10 μM rotenone, in as early as 2 hr) is given as “resulted in neurite degeneration”.

The values are drawn from patent US9861651B2, “Use of nicotinamide riboside to treat hearing loss” (Cornell University, priority 2012, dated 2018).
